{
  "source": "ChEMBL document CHEMBL1201862",
  "about": "“PubChem BioAssay data set” (2004)",
  "key": {"Mu-type opioid receptor": {"target": "Mu-type opioid receptor (Homo sapiens, UniProt P35372)", "sequence (P35372 whole entry)": "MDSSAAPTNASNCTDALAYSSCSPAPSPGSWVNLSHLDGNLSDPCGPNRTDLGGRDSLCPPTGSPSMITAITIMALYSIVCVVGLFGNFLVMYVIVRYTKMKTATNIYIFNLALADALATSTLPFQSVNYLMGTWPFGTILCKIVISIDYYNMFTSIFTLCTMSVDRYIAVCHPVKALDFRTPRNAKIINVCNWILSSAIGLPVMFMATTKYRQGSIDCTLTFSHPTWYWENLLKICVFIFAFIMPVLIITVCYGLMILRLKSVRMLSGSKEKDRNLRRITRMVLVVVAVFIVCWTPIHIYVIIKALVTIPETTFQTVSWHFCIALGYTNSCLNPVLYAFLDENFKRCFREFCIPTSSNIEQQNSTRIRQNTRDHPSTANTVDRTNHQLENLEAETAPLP", "type": "functional, cell-based"}, "[1]": {"target": "5-hydroxytryptamine receptor 2A (Mus musculus, UniProt P35363)", "sequence (P35363 whole entry)": "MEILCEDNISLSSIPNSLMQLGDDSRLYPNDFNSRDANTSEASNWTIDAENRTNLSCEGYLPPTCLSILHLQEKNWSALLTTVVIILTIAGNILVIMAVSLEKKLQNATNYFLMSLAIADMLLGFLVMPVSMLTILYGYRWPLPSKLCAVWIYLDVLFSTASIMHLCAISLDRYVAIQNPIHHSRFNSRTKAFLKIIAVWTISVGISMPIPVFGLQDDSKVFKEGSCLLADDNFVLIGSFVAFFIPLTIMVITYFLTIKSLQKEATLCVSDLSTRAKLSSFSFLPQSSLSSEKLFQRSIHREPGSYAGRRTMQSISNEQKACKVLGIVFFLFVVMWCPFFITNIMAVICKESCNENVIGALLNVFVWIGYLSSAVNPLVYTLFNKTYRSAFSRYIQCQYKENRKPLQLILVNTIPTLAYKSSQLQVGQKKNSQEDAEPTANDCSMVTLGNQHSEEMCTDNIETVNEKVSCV", "type": "functional, cell-based"}, "Prothrombin": {"target": "Prothrombin (Bos taurus, UniProt P00735)", "assay": "thrombin protease inhibitors – biochemical, fluorescence polarization, uHTS hits, dose response (AID 602369)", "type": "functional"}, "[2]": {"test_system": "Streptococcus sp. 'group A'", "assay": "Streptococcus pyogenes SK(-)GAS viability under kanamycin – luminescence, BacTiterGlo, confirmation, counter-screen for streptokinase expression inhibitor project, dose response (AID 1900)", "type": "functional, organism-based"}, "[3]": {"target": "26S proteasome non-ATPase regulatory subunit 14 (Homo sapiens, UniProt O00487)", "sequence (O00487 whole entry)": "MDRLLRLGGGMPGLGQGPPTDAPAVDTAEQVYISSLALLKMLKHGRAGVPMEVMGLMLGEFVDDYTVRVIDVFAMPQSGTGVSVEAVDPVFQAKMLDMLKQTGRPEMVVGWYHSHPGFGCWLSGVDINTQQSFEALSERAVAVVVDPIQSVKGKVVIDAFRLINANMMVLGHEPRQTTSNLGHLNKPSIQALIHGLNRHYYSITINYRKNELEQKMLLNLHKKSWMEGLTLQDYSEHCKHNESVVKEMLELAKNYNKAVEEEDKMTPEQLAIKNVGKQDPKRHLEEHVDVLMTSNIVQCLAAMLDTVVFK", "assay": "inhibition of proteasome subunit RPN11 – biochemical, fluorescence polarization, uHTS hits, confirmation (AID 602368)", "type": "functional"}, "Streptococcus": {"test_system": "Streptococcus", "assay": "GAS UMAA2166 growth inhibition – luminescence, BacTiterGlo, counter-screen for streptokinase expression inhibitor project, dose response (AID 1915);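 further: potency for reduction of bacterial viability or growth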", "type": "functional, organism-based"}, "[4]": {"target": "72 kDa type IV collagenase (Homo sapiens, UniProt P08253)", "sequence (P08253 whole entry)": "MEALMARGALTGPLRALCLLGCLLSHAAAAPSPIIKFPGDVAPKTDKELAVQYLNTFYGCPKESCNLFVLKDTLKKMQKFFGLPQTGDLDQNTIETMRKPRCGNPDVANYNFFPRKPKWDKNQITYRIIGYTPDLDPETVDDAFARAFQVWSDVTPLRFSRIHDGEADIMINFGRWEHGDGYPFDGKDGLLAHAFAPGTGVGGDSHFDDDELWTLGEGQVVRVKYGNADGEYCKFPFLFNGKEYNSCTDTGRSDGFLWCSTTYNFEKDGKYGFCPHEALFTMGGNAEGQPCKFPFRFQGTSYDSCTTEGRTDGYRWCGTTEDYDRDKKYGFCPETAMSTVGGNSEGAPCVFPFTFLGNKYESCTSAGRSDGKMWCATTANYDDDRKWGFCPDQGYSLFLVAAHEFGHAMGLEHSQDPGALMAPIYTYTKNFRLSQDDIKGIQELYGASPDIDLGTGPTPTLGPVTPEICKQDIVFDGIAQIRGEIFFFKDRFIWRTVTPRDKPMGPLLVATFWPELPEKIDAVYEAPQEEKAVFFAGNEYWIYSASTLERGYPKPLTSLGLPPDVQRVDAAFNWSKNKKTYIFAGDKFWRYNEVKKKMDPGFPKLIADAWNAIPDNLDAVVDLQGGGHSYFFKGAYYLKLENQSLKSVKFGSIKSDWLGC", "assay": "Dose Response validation of uHTS RPN11 inhibitor hits using a MMP-2 Fluorescence assay.", "type": "functional"}, "Protein Wnt-3a": {"target": "Protein Wnt-3a (Mus musculus, UniProt P27467)", "sequence (P27467 whole entry)": "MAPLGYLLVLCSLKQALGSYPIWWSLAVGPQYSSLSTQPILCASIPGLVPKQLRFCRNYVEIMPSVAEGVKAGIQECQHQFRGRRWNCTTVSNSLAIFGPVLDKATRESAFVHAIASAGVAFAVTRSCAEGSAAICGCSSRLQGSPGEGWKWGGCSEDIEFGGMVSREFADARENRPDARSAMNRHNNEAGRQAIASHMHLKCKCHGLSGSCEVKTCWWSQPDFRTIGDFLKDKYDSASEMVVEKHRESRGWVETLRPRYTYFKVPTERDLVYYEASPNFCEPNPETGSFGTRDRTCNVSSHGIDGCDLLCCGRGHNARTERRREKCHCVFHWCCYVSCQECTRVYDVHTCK", "assay": "antagonism of Wnt3a pathway luciferase reporter – Wnt-LIGHT cells, luminescence, selectivity assay for Gli-SUFU antagonist project, dose response (AID 651570);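 further: Wnt-LIGHT reporter cells stimulated with conditioned medium from Wnt3a-producing cells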", "type": "functional", "details": "read-out: IC50_Mean"}, "INS1": {"test_system": "INS1", "assay": "INS-1E survival protection against cytokine death – cell-based, luminescence, retest, dose response (AID 449756);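 further: cell death triggered by IL-1 beta plus TNF-alpha plus IFN-gamma mixture; protective hits raise ATP signal compared with cytokine alone wells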", "type": "functional", "details": "Rattus norvegicus"}, "[5]": {"assay": "activation of miR-122 Renilla sensor silencing – cell-based, Huh7 psiCHECK-miR122, Renilla luciferase, cherry-picked, dose response (AID 651956);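 further: huh7 hepatoma cells stably carrying a psiCHECK-2 miR-122 sensor plasmid; renilla luciferase signal reporting endogenous miR-122 activity after 48 h compound exposure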", "type": "functional"}, "[6]": {"target": "T1, Calpain-2 catalytic subunit (Sus scrofa, UniProt P43367)", "T1 sequence (P43367 whole entry)": "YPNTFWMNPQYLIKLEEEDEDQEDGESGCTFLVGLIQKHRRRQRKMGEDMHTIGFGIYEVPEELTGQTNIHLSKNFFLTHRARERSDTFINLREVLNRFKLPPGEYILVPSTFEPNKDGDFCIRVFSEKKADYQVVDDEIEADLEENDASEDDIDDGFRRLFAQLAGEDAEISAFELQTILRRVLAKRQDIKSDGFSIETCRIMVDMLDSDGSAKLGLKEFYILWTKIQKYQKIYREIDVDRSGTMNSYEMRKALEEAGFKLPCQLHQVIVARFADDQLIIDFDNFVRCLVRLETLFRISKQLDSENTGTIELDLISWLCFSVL", "assay": "m-calpain protease blockers, concentration series – biochemical, fluorogenic peptide substrate, dose response (AID 1420)", "type": "functional"}, "[7]": {"target": "T2, Endoribonuclease toxin MazF (Escherichia coli K-12, UniProt P0AE70)", "T2 sequence (P0AE70 whole entry)": "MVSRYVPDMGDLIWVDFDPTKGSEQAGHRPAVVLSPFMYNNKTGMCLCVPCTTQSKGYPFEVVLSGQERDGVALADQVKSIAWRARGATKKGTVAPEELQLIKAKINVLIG", "assay": "substrate-only fluorescence increase artefacts – biochemical, single-stranded RNase substrate, counter-screen for MazEF activator project, dose response (AID 588502)", "type": "functional"}, "[8]": {"target": "T2, Endoribonuclease toxin MazF", "assay": "activation of MazEF endoribonuclease cleavage – biochemical, fluorescence, single-stranded RNA substrate, uHTS hits, dose response (AID 588481)", "type": "functional"}, "Estrogen receptor": {"target": "T3, Estrogen receptor (Homo sapiens, UniProt P03372)", "T3 sequence (P03372 whole entry)": "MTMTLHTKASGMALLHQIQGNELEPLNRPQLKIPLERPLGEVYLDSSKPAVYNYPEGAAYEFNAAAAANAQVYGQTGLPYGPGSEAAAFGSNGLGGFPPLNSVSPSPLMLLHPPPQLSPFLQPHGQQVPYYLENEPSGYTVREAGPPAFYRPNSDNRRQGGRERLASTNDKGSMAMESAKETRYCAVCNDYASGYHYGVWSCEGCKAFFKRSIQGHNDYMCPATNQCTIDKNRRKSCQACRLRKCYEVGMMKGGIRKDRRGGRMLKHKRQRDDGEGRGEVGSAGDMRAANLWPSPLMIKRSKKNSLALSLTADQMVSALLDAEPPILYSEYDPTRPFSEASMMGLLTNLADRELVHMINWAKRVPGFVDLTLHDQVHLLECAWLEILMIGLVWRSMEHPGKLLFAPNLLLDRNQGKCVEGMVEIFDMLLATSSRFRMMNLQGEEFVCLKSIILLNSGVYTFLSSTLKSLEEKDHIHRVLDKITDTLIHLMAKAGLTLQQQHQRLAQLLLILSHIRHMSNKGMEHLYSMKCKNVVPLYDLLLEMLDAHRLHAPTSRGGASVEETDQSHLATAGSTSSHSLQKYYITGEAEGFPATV"}, "[9]": {"target": "Induced myeloid leukemia cell differentiation protein Mcl-1 (Homo sapiens, UniProt Q07820)", "sequence (Q07820 whole entry)": "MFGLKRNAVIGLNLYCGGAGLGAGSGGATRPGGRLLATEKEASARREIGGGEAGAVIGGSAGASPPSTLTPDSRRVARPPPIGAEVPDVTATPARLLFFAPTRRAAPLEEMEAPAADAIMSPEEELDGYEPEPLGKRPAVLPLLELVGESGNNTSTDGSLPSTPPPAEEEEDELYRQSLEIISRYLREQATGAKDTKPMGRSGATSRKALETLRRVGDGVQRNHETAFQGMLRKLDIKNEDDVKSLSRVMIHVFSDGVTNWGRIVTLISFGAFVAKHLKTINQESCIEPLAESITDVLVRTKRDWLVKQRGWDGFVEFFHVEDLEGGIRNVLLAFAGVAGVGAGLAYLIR", "type": "functional"}},
  "note": "Activity calls are given as the source filed them.",
  "data": [
    {"compound": "CCN(CC)S(=O)(=O)c1cc(NC(=O)CN2CCN(c3ccccn3)CC2)ccc1C", "values": [
      {"measurement": "EC50", "setting": "Mu-type opioid receptor", "value": "92.5 µM (inactive)"},
      {"measurement": "EC50", "setting": "[1]", "value": "0.761 µM (active)"}
    ]},
    {"compound": "CO/N=C(/C(=O)N[C@@H]1C(=O)N2C(C(=O)O)=CCS[C@H]12)c1cnc(N)s1", "values": [
      {"measurement": "IC50", "setting": "Prothrombin", "value": "54.1 µM (active)"},
      {"measurement": "EC50", "setting": "[2]", "value": "< 0.06 µM (active)"},
      {"measurement": "IC50", "setting": "[3]", "value": "1.33 µM (active)"},
      {"measurement": "EC50", "setting": "Streptococcus", "value": "< 0.06 µM (active)"},
      {"measurement": "IC50", "setting": "[4]", "value": "0.122 µM (active)"}
    ]},
    {"compound": "Cc1sc2ncnc(NCc3cccs3)c2c1C", "values": [
      {"measurement": "IC50", "setting": "Protein Wnt-3a", "value": "1.81 µM (active)"},
      {"measurement": "AC50", "setting": "INS1", "value": "4.79 µM (active)"}
    ]},
    {"compound": "C[C@@H]1CN([C@@H](C)CO)S(=O)(=O)c2ccc(C3=CCCCC3)cc2O[C@@H]1CN(C)C(=O)Cc1ccncc1", "values": [
      {"measurement": "AC50", "setting": "[5]", "value": "6.22 µM (active)"}
    ]},
    {"compound": "O=[N+]([O-])c1ccc(OCC(O)CN2CCN(c3ccccc3F)CC2)cc1", "note": "(stereo unspecified)", "values": [
      {"measurement": "EC50", "setting": "Mu-type opioid receptor", "value": "92.5 µM (inactive)"},
      {"measurement": "IC50", "setting": "[6]", "value": "> 50 µM (not active)"},
      {"measurement": "EC50", "setting": "[1]", "value": "76.1 µM (inactive)"}
    ]},
    {"compound": "Cc1nc(SCC(=O)c2cc3ccccc3oc2=O)c(C#N)c(-c2cccs2)c1C(=O)Nc1ccccc1", "values": [
      {"measurement": "EC50", "setting": "[7]", "value": "> 99 µM (inactive)"},
      {"measurement": "EC50", "setting": "[8]", "value": "> 99 µM (inactive)"}
    ]},
    {"compound": "Cc1c(/C=N/n2cnnc2)c2ccccc2n1CCOc1ccc(Cl)cc1", "values": [
      {"measurement": "EC50", "setting": "[7]", "value": "> 99 µM (inactive)"},
      {"measurement": "EC50", "setting": "[8]", "value": "> 99 µM (inactive)"},
      {"measurement": "IC50", "setting": "Estrogen receptor", "value": "> 50 µM (not active)"}
    ]},
    {"compound": "COc1ccc(-c2ccc(/C=C3/C(=N)N4C=CSC4=NC3=O)o2)c([N+](=O)[O-])c1", "values": [
      {"measurement": "IC50", "setting": "[9]", "value": "1.52 µM (active)"},
      {"measurement": "EC50", "setting": "[7]", "value": "> 99 µM (inactive)"},
      {"measurement": "EC50", "setting": "[8]", "value": "19.6 µM (active)"}
    ]}
  ]
}
